Source: US5633277A, “Sulfonamide aminomethylene derivatives as immunosuppressants” (Miles Inc., priority 1995, dated 1997)

Tests used:
human T-cells = assay: Suppression of Human T-Cell Proliferation Assay (mitogen-induced, [3H]-thymidine incorporation); assay type: cell-based; conditions: Homo sapiens, T-cell; 72 hours incubation; mitogen stimulated; read-out: IC50 (inhibition of [3H]-thymidine incorporation of T-cells by 50%)
Description: 2) Human T Lymphocyte Inhibition
Inhibition of mitogen-induced T-cell proliferation can be used to profile immunosuppressive activity of test compounds. In the description of the assay which follows, mitogen-induced T-cell proliferation was used to test the inhibitory potencies of select compounds of the present invention.
In an assay similar to that described by Bradley in Mishell et al. (Eds.), 1980, Selected Methods in Cellular Immunology, pp 156-161, W. H. Freeman & Co., San Fransisco, Calif., T-cells were stimulated by incubation with phytohemagglutinin (PPIA) which binds to cell surface molecules, including the T-cell receptor. This stimulation results in proliferation which can be measured by incorporation of [^3 H]-thymidine into cellular DNA.
The immunosuppressive properties of the compounds of the present invention can be determined by adding various concentrations of the compounds to these cultures and measuring the effect on T-cell proliferation.
Suppression of Human T-Cell Proliferation Assay
Fresh LeukoPaks were obtained from the New York Blood Center, New York, N.Y. The cells, including erythrocytes and leukocytes, were diluted with Hank's Balanced Salt Solution (HBSS) (GIBCO, Grand Island, N.Y.) and layered over Lymphoprep (Nycomed Pharma AS, Oslo, Norway) in sterile 50 ml conical centrifuge tubes. Lymphocytes were isolated at the Hank's/Nycomed interface after centrifugation at 2000×g, 4° C. for 15 min. The lymphocytes were washed with Minimal Essential Medium (GIBCO) containing 2% fetal bovine serum (FBS) (Sigma Chemical Co., St. Louis, Mo.), 1% HEPES buffer (GIBCO) and 1% Penicillin-Stretomycin solution (GIBCO).
T-cells were further purified essentially by sheep erythrocyte (SRBC) rosetting as described by Morimoto et al., 1983, J. Immunol. 130:157. The isolated lymphocytes were adjusted to 2×10^7 cells/ml and 5 ml aliquots of the cell suspension were incubated for 10 minutes at room temperature with 5 ml of a 5% SRBC (Cappel, Organon Technika Corp., West Chester, Pa.) suspension. The cells were gently pelleted by centrifugation at 300 rpm for 10 minutes, followed by a 1 hour incubation at room temperature to allow rosette formation. The cells were gently resuspended,layered over Lymphoprep and centrifuged for 30 minutes at 500×g. The pellet, containing rosetted T-cells and SRBC was treated with ice cold buffered ammonium chloride (GIBCO) to lyse the erythrocytes. T-cells were washed twice with HBSS.
Purified T-cells were resuspended at 2×10^6 cells/ml in complete culture medium composed of RPMI-1640 (Whittaker Bioproducts, Walkerville, Md.) with 10% FBS (Sigma), 2 mM L-glutamine (GIBCO), 1% Penicillin-Streptomycin (GIBCO) and 15 mM HEPES (GIBCO). In 96-well plates (Becton Dickinson, Lincoln Park, N.J.), 0.1 ml aliquots of T-cell suspension were mixed with 0.05 ml of 40 μg/ml PPIA-M (Sigma). The compounds of this invention were dissolved in dimethylsulfoxide at 10 mM and various dilutions in complete medium were added in duplicate wells (0.05 ml/well). The plates were incubated at 37° C. in a humidified atmosphere of 5% carbon dioxide and 95% air for 72 hours.
Proliferation was assessed by measurement of [3H]-thymidine incorporation. During the last 6 hours of incubation, the cells were pulse labelled with 1 μCi/well of [3H]-thymidine (New England Nuclear, Boston, Mass.). The cells were harvested onto glass fiber paper using a plate harvester and the radioactivity incorporated into cellular DNA corresponding to individual wells was measured by standard liquid scintillation counting methods. The mean counts per minute (CPM) of replicate wells was calculated and linear regression analysis of mean CPM versus compound concentration was used to determine the concentration of compound which would inhibit [^3 H]-thymidine incorporation of T-cells by 50% (IC50).

FKBP = FKBP (Homo sapiens, UniProt P62942); assay: PPIase Inhibition Assay; assay type: biochemical
Sequence of FKBP (P62942 whole entry): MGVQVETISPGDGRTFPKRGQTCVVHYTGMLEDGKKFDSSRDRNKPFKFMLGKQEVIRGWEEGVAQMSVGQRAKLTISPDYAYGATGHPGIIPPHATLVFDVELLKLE
Description: 1) Inhibition of PPlase Activity
This assay follows in principle the procedure described in Kofron et al., 1991, Biochemistry 30:6127. The three main reagents used are PPIase, a substrate for PPIase, and a selected inhibitor compound of the present invention. The basic principle behind this assay is the conversion of the cis isomer of the substrate to the trans form, which conversion is catalyzed by PPIase. Essentially, inhibition of this PPIase activity is measured for the selected compounds. A peptide chymotrypsin substrate containing a proline in the P2 position is only cleaved by chymotrypsin when the Phe-Pro bond is in the trans isomeric configuration. In the presence of excess chymotrypsin, all of the trans peptide isomers are cleaved within approximately five seconds, leaving only cis forms.
The cis peptide will spontaneously convert to the trans isomer at a slow rate. The cis to trans conversion is catalyzed by isomerases at a much faster rate than this spontaneous conversion. Proteins with PPIase activity are examples of such isomerases. After isomerization, the peptide is cleaved by chymotrypsin releasing p-nitroaniline which can be monitored at 390 nm. The rate of release is then calculated using a first order rate plus offset equation utilizing the ENZFITTER program (Leatherbarrow, BIOSOFT, Cambridge, United Kingdom).
In a plastic cuvette are added 950 ul of ice cold assay buffer (25 mM HEPES, pH 7.8, 100 mM NaCl), 10 uL of FKBP (2.5 uM in 10 mM Tris-Cl pH 7.5,100 mM NACl, 1 mM dithiothreitol), 25 ul of chymotrypsin (50 mg/ml in 1 mM HCl) and 10 ul of the test compound at various concentrations in dimethyl sulphoxide. The reaction is initiated by addition of 5 ul of substrate (Succinyl-Ala-Phe-Pro-Phe-para-nitroanilide, 5 mg/ml in 235 mM LiCl in trifluoroethanol).
The absorbance at 390 nm versus time is monitored for 90 sec using a Beckman DU70 spectrophotometer. The absorbance versus time data files are transferred to an IBM XT computer and the rate constants determined using the commercial Enzfitter program. For each set of data, the uncatalyzed rate of conversion is measured and the uninhibited enzymatic rate determined. The data are expressed as % Inhibition and are calculated as follows: [formula] where kobs is the rate in the presence of a selected test compound, kuncat is the rate in the absence of enzyme, and kuninh is the rate in the presence of enzyme and absence of inhibitor. Data are plotted as percent inhibition versus concentration of inhibitor. The values of the concentration of inhibitor required for 50% inhibition of enzyme activity (IC50) were determined by nonlinear least squares regression analysis.

IL-2 production = conditions: cited from earlier work
NF-AT = conditions: Schreiber and Crabtree, 1992; cited from earlier work
[1] = system: FK506 binding protein (FKBP); conditions: cited from earlier work
transplant patients = conditions: cited from earlier work
baboons = conditions: Collier et al., 1988; cited from earlier work
dogs = conditions: Collier et al., 1988; cited from earlier work

Row | IC50 (FKBP) | SMILES | IC50 (human T-cells) | IL-2 production (in words) (IL-2 production) | NF-AT activity (in words) (NF-AT) | binding to FKBP (in words) [1] | effectiveness in transplant patients who do not respond to CsA (transplant patients; Tucci et al., 1989) | absolute rate of clinical rejection vs current standard therapies (transplant patients; post-organ transplantation patients, Holechek, 1991) | vasculitis (baboons) | vasculitis (dogs)
1 | > 5 µM | CC(C)C[C@@H](CN1CCC[C@H]1C(=O)NCCCCc1ccccc1)NS(=O)(=O)CS(C)(=O)=O [Example 9, 1-[2-(S)-(Methylsulfonylmethanesulfonylamino)-4-methylpentyl]-L-proline 4-Phenylbutylamide] | 4 µM | – | – | – | – | – | – | –
2 | – | C=CC[C@@H]1/C=C(\C)C[C@H](C)C[C@H](OC)[C@H]2O[C@@](O)(C(=O)C(=O)N3CCCC[C@H]3C(=O)O[C@H](/C(C)=C/[C@@H]3CC[C@@H](O)[C@H](OC)C3)[C@H](C)[C@@H](O)CC1=O)[C@H](C)C[C@@H]2OC [FK506] | – | inhibit IL-2 production | inhibited | bound | effective in some transplant patients who do not respond to CsA | only slightly lower than with current standard therapies | severe vasculitis | severe vasculitis
